The values that follow come from patent publication US20220402862A1 (Intellia Therapeutics, Inc., priority 2019, published 2022).

Several values for one entry are separate records, joined by “and”; a condition that tells them apart may be missing. Equal entries are not always repeated.

As a reminder, the pKa is the pH at which an ionisable group is half protonated. A higher pKa goes with a weaker acid or stronger base.

The subject of data set [1] is Transthyretin (TTR). Nature of the data set: Serum TTR ELISA in mice after LNP dosing. Type of data set: in vivo, CD-1 female mice. The method in brief:
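Female CD-1 mice, 6–10 weeks, given LNPs by tail-vein injection (~10 mL/kg), 0.1 mg/kg unless noted; serum taken at day 6 or 7 by cardiac puncture. Total mouse TTR by ELISA on sera diluted 10,000-fold (0.1 mg/kg) or 10,000- and 2,500-fold (0.3 mg/kg).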
On the technique in general: In an ELISA, binding on a coated surface is turned into a signal by an enzyme label.

Data set [2] in a line: RNA encapsulation efficiency of LNPs (Ribogreen fluorescence assay). Type of data set: physicochemical. Particulars: LNP; for Encapsulation (%): sg:mRNA 1:1, N/P about 6, amine lipid/DSPC/cholesterol/PEG-2k-DMG 50/9/38/3, Table 2, Experiments 2-20. The method in brief:
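LNPs were diluted in 1× TE with 0.2% Triton X-100 (total RNA) or without it (free RNA), stained with RiboGreen for ~10 min at room temperature in the dark, and read at Ex 488/Em 525 nm against standard curves of the starting RNA. Encapsulation efficiency = (Total − Free)/Total.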

For data set [3], the system named is mouse TTR gene. Nature of the data set: In vivo editing in mouse liver, sgRNA targeting TTR (G282 or G502), % indel by NGS. Also on record: species or system CD-1 female mice. How it is done: CD-1 female mice ranging from 6-10 weeks of age were used in each study. Animals were weighed and grouped according to body weight for preparing dosing solutions based on group average weight. LNPs were dosed via the lateral tail vein in a volume of 0.2 mL per animal (approximately 10 mL per kilogram body weight). The animals were periodically observed for adverse effects for at least 24 hours post dose. For studies measuring in vivo editing in liver, CD-1 female mice were dosed at 0.1 mg/kg unless otherwise noted. Animals were euthanized at 6 or 7 days by ex sanguination via cardiac puncture under isoflurane anesthesia. Liver tissue was collected from each animal for DNA extraction and analysis. Blood was collected into serum separator tubes or into tubes containing buffered sodium citrate for plasma as described herein. Cohorts of mice were measured for editing by Next-Generation Sequencing (NGS).
In brief, to quantitatively determine the efficiency of editing at the target location in the genome, genomic DNA was isolated and deep sequencing was utilized to identify the presence of insertions and deletions introduced by gene editing.
PCR primers were designed around the target site (e.g., within B2M), and the genomic area of interest was amplified. Additional PCR was performed according to the manufacturer's protocols (Illumina) to add the necessary chemistry for sequencing. The amplicons were sequenced on an Illumina MiSeq instrument. The reads were aligned to the mouse or rat reference genome (e.g., GRCm38) after eliminating those having low quality scores. The resulting files containing the reads were mapped to the reference genome (BAM files), where reads that overlapped the target region of interest were selected and the number of wild type reads versus the number of reads which contain an insertion, substitution, or deletion was calculated.
The editing percentage (e.g., the “indel efficiency” or “percent indels”) was defined as the total number of sequence reads with insertions or deletions over the total number of sequence reads, including wild type.
We assessed in vivo editing efficiency for materials delivered with formulations including various amine lipid compounds. Editing was measured using either G282 (SEQ ID No: 1) which targets the mouse TTR gene or G650 (SEQ ID No. 2) which targets the mouse B2M gene. Lipids described above were assessed for efficacy through in vivo editing experiments. LNPs were formulated at a 1:1 or 1:1.3 w/w ratio of sgRNA to Cas9 mRNA, and at an N/P ratio of about 6. Molar concentrations of lipids in the lipid component of the LNPs are used at mol % amine lipid/DSPC/cholesterol/PEG-2k-DMG of 50/9/38/3. The final LNPs were characterized to determine the encapsulation efficiency, polydispersity index, and average particle size according to the analytical methods provided above. Analysis of average particle size, polydispersity (PDI), total RNA content and encapsulation efficiency of RNA are shown in Table 2.
To assess whether the editing was dose responsive, experiments were performed in vivo at various LNP dose levels. Cas9 mRNA of Example 120 was formulated as LNPs with an sgRNA targeting TTR (G282, SEQ ID NO: 1; or G502, SEQ ID NO: 4).
We assessed in vivo delivery by measuring editing efficiency for materials delivered with formulations that included various amine lipid compounds. Cas9 mRNA (SEQ ID NO: 6) was formulated as LNPs with an sgRNA targetting the TTR mouse gene (SEQ ID NO: 4). LNPs were formulated at a 1:2 w/w ratio of sgRNA to Cas9 mRNA, and at an N/P ratio of about 6. Molar concentrations of lipids in the lipid component of the LNPs are used at mol % amine lipid/DSPC/cholesterol/PEG-2k-DMG of 50/9/38/3. The final LNPs compositions were characterized and analyzed as described in Example 120. Analysis of average particle size, polydispersity (PDI), total RNA content and encapsulation efficiency of RNA are shown in Table 6.

Data set [4] in a line: pKa measurement of unformulated amine lipid (fluorescence, method of Jayaraman et al.). Type of data set: physicochemical. The following applies: 100 μM in 0.1 M phosphate buffer, pH 2.0-12.0. How it is done:
The pKa of each amine lipid was determined according to the method in Jayaraman, et al. (Angewandte Chemie, 2012) with the following adaptations. […] Lipid was diluted to 100 μM in 0.1 M phosphate buffer (Boston Bioproducts) where the pH ranged from 2.0-12.0. Fluorescence intensity was measured using excitation and emission wavelengths of 321 nm and 448 nm.

Data set [5] is described as follows: Dynamic light scattering of LNPs: Z-average diameter, number average diameter, PDI. Type of data set: physicochemical. The following applies: LNP. In outline: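 LNP samples were diluted in PBS and measured by DLS to give intensity-based Z-average diameter, number average diameter and polydispersity index. PDI describes size spread around the mean, with zero meaning a uniform population.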

Setting [6] is: mouse, LNP i.v. 0.1 mg/kg, guide G282, Experiments 101-103.
Setting [7] is: mouse, LNP i.v. 0.1 mg/kg, guide G282, Experiments 101-103, relative to TSS control.
[8] abbreviates: mouse, LNP i.v. 0.3 mg/kg, guide G282, Experiments 101-103.
[9] abbreviates: mouse, LNP i.v. 0.3 mg/kg, guide G282, Experiments 101-103, relative to TSS control.
Where [10] appears, read: sg:mRNA 1:1, N/P 6.0, 50/9/38/3, Table 4, Experiments 101-104.
Setting [11] is: LNP i.v. 0.1 mg/kg, guide G282, Experiments 101-103.
Where [12] appears, read: LNP i.v. 0.3 mg/kg, guide G282, Experiments 101-103.
Where [13] appears, read: sg:mRNA 1:1, N/P about 6, 50/9/38/3, Table 2, Experiments 2-20.
Where [14] appears, read: sg:mRNA 1:2, N/P 6.0, 50/9/38/3, Table 4, Experiment 105.
[15] abbreviates: sg:mRNA 1:2, N/P about 6, 50/9/38/3, Table 6, Experiments 106-107.

Regarding `CCCCC/C=C\C/C=C\CCCCCCCC(=O)OCC(COC(=O)CCCN(CC)CC)COC(=O)CCC(OCCCCCCCC)OCCCCCCCC` (centres unmarked) [Compound 29, 3-((4,4-bis(octyloxy)butanoyl)oxy)-2-(((4-(diethylamino)butanoyl)oxy)methyl)propyl (9Z,12Z)-octadeca-9,12-dienoate], the entries for the “Serum TTR” value in data set [1] (setting [6]) and in data set [1] (setting [8]) were 663 µg/mL and 205 µg/mL, respectively. For the same molecule, the “Serum TTR % TSS” value in data set [1] (setting [7]) was found to be 48%; in data set [1] (setting [9]), 15%. The “% E” value in data set [2] (setting [10]) was found to be 99%. Besides, the “Encapsulation (%)” value in data set [2] is on record as 98%. In addition, the figures for the “Editing Mean % Indel” value in data set [3] (setting [11]) and in data set [3] (setting [12]) were 31.4% and 54.8%, respectively. The pKa in data set [4] was determined as 6.84. For the same molecule, the “Number mean (nm)” value in data set [5] (setting [10]) is 70 nm; in data set [5] (setting [13]), 66.92 nm and 64.63 nm. Further, the PDI in data set [5] (setting [10]) turned out to be 0.003. Further, the “Z-avg (nm)” value was 84 nm in data set [5] (setting [10]); 82.41 nm and 78.63 nm in data set [5] (setting [13]).

As for `CCCCC/C=C\C/C=C\CCCCCCCC(=O)OCC(COC(=O)CCC(OCCCCCCCC)OCCCCCCCC)COC(=O)C1CCN(C)CC1` (centres unmarked) [Compound 31, 3-((4,4-bis(octyloxy)butanoyl)oxy)-2-((((9Z,12Z)-octadeca-9,12-dienoyl)oxy)methyl)propyl 1-methylpiperidine-4-carboxylate], the “Serum TTR” value was 976 µg/mL in data set [1] (setting [6]) and 226 µg/mL in data set [1] (setting [8]). Moreover, the “Serum TTR % TSS” value was 71% in data set [1] (setting [7]) and 17% in data set [1] (setting [9]). Further, the “% E” value in data set [2] (setting [10]) amounted to 99%. The “Encapsulation (%)” value in data set [2] was 98% and 99%. The “Editing Mean % Indel” value is reported as 13.5% in data set [3] (setting [11]) and 50.7% in data set [3] (setting [12]). In data set [4], this molecule registered a pKa of 7.31. In addition, the “Number mean (nm)” value is 61 nm in data set [5] (setting [10]); 58.67 nm and 59.35 nm in data set [5] (setting [13]). Moreover, in data set [5] (setting [10]), the PDI came out at 0.04. The “Z-avg (nm)” value was 76 nm in data set [5] (setting [10]); 75.11 nm and 73.65 nm in data set [5] (setting [13]).

For the molecule `CCCCCC/C=C\COC(=O)CCCCCCCC(=O)OCC(COC(=O)CCC(OCCCCCCCC)OCCCCCCCC)COC(=O)OCCCN(CC)CC` (centres unmarked) [Compound 54, (Z)-1-(3-((4,4-bis(octyloxy)butanoyl)oxy)-2-((((3-(diethylamino)propoxy)carbonyl)oxy)methyl)propyl) 9-(non-2-en-1-yl) nonanedioate], the “Serum TTR” value in data set [1] (setting [6]) worked out at 449 µg/mL; in data set [1] (setting [8]), 97 µg/mL. For the same molecule, the “Serum TTR % TSS” value in data set [1] (setting [7]) is reported as 49%; in data set [1] (setting [9]) it was 11%. Moreover, the “% E” value in data set [2] (setting [10]) turned out to be 98%. For the same molecule, in data set [2], the “Encapsulation (%)” value came out at 98%. Besides, the “Editing Mean % Indel” value in data set [3] (setting [11]) was 28.3%; in data set [3] (setting [12]), 64.8%. The molecule also had a pKa in data set [4] of 6.4. For the same molecule, the “Number mean (nm)” value in data set [5] (setting [10]) was 77.96 nm; in data set [5] (setting [13]) it was 76.95 nm and 71.8 nm and 78.39 nm. This molecule displayed a PDI in data set [5] (setting [10]) of 0.032. Moreover, the “Z-avg (nm)” value in data set [5] (setting [10]) was 96.98 nm; in data set [5] (setting [13]), 95.76 nm and 89.8 nm and 99.71 nm.

Consider `CCCCCCCCOC(CCC(=O)OCC(COC(=O)CCCCCCCCCCC(=O)OCCCCCCC)COC(=O)OCCCN(CC)CC)OCCCCCCCC` (centres unmarked) [Compound 61, 1-(3-((4,4-bis(octyloxy)butanoyl)oxy)-2-((((3-(diethylamino)propoxy)carbonyl)oxy)methyl)propyl) 12-heptyl dodecanedioate], for which the “Serum TTR” value in data set [1] (mouse, LNP i.v. 0.03 mg/kg, guide G502, Experiment 105) is 711 µg/mL; in data set [1] (mouse, LNP i.v. 0.1 mg/kg, guide G502, Experiment 105) it was 472 µg/mL. In addition, the “Serum TTR % TSS” value is 65% in data set [1] (mouse, LNP i.v. 0.03 mg/kg, guide G502, Experiment 105, relative to TSS control) and 43% in data set [1] (mouse, LNP i.v. 0.1 mg/kg, guide G502, Experiment 105, relative to TSS control). Besides, the “Encapsulation (%)” value in data set [2] amounted to 97%. Besides, the “% E” value in data set [2] (setting [14]) is given as 98%. Further, the “Editing Mean % Indel” value worked out at 7.78% in data set [3] (LNP i.v. 0.03 mg/kg, guide G502, Experiment 105) and 36.06% in data set [3] (LNP i.v. 0.1 mg/kg, guide G502, Experiment 105). Also, in data set [4], the pKa is 6.29. Also, the “Number mean (nm)” value turned out to be 72 nm in data set [5] (setting [13]) and 79.73 nm in data set [5] (setting [14]). For the same molecule, the results for the PDI in data set [5] (setting [13]) and in data set [5] (setting [14]) were 0.018 and 0.033, respectively. Also, the entries for the “Z-avg (nm)” value in data set [5] (setting [13]) and in data set [5] (setting [14]) were 87.26 nm and 99.25 nm, respectively.

As to `CCCCC/C=C\C/C=C\CCCCCCCC(=O)OCC(COC(=O)CCC(OCCCCCCCC)OCCCCCCCC)COC(=O)NCCN1CCCC1` (centres unmarked) [Compound 100, 3-((4,4-bis(octyloxy)butanoyl)oxy)-2-((((2-(pyrrolidin-1-yl)ethyl)carbamoyl)oxy)methyl)propyl (9Z,12Z)-octadeca-9,12-dienoate], in data set [1] (mouse serum TTR relative to TSS control, guide G502, i.v. 0.1 mg/kg), the “Serum TTR % TSS” value stood at 81.3%. For the same molecule, the “Serum TTR” value in data set [1] (mouse serum, guide G502, i.v. 0.1 mg/kg) was 1017.4 µg/mL. In addition, the “% E” value in data set [2] (sg:mRNA 1:2, N/P about 6, 50/9/38/3, TTR sgRNA (SEQ ID NO: 4), Table 6, Experiments 106-107) is 99%. Moreover, the “Editing Mean % Indel” value in data set [3] (guide G502, i.v. 0.1 mg/kg, sgRNA:Cas9 mRNA 1:2 w/w, experiments 106, 107) is given as 12%. The pKa in data set [4] stood at 7.2. In data set [5] (setting [15]), the “Number mean (nm)” value is 70 nm, the PDI is 0.04 and the “Z-avg (nm)” value came to 89 nm.
